Reference: patent publication US20260209249A1, “NOVEL TRICYCLIC COMPOUND AS KRAS G12D INHIBITOR, AND USE THEREOF” (SK Biopharmaceuticals Co., priority 2022, published 2026)

Assays:
[1] = biological target: T1, GDP-KRAS G12D mutant protein (Homo sapiens, UniProt P01116, G12D); experiment: Differential scanning fluorimetry (DSF) binding affinity to GDP-KRAS G12D mutant protein; settings: DSF thermal shift, 10 μM compound, 4 μg KRAS protein
T1 construct: purchased Daegu Gyeongbuk Medical Innovation Foundation (DGMIF), made to order
Procedure, shortened: (§1)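 Each sample held 4 μg recombinant KRAS G12D (GDP- or GppNHp-bound) and 10 μM compound, incubated 30 min at room temperature before adding 2× SYPRO Orange. The GDP form was run in kit buffer, the GppNHp form in 50 mM HEPES pH 7.5. Melt was 25–99 °C at 0.05 °C/s (580/623 nm), reported as ΔTm versus no compound.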

[2] = biological target: T2, GppNHp-KRAS G12D mutant protein (Homo sapiens, UniProt P01116, G12D); experiment: Differential scanning fluorimetry (DSF) binding affinity to GppNHp-KRAS G12D mutant protein; settings: DSF thermal shift, 10 μM compound, 4 μg KRAS protein, 50 mM HEPES (pH 7.5)
T2 construct: purchased Daegu Gyeongbuk Medical Innovation Foundation (DGMIF), made to order
Procedure, shortened: as §1

[3] = tested on: ERK phosphorylation (pERK) induced by KRAS G12D mutation; experiment: Inhibitory activity against ERK phosphorylation (pERK) induced by KRAS G12D mutation, immunofluorescence assay in AsPC-1 cells; type: cell-based; settings: Homo sapiens, ASPC1, 3 h drug treatment, pERK (Thr202/Tyr204) signal normalized to DAPI
Text: Test Example 2: Measurement of Inhibitory Activity Against ERK Phosphorylation (pERK) Induced by KRAS G12D Mutation (Immunofluorescence Assay)
Immunofluorescence is a method used to detect specific substances within cells or tissues through antigen-antibody interactions, and allows for the identification of the presence or absence of specific proteins by using antibodies labeled with various fluorescent dyes. After a primary antibody that recognizes a specific protein selectively binds to the epitope, a fluorescent antibody (secondary antibody) is bound to the primary antibody.
It was confirmed as follows that the compounds according to an embodiment of the present application inhibit phosphorylation of extracellular signal-regulated kinases (Phospho-ERK, pERK) induced by KRAS G12D mutation.
AsPC-1 cells were seeded at a density of 10,000 cells/well in RPMI-1640 medium containing 10% FBS and 1% Penicillin-Streptomycin in 384-well plates (Perkinelmer, #6057300) and allowed to attach for 16 h. After the cells attached to the plate, the cells were treated with drugs at a maximum concentration of 10 μM with a 3-fold serial dilution. After 3 h of drug treatment, the medium was removed and the cells were treated with 50 μL of 4% formaldehyde (Biosesang, #PC2031-050-00) for 20 min and washed three times with 50 μL of phosphate buffered saline (PBS).
50 μL of PBS containing 0.3% Triton X-100 (Sigma, #T8787-250 mL) was added and reacted for 20 minutes to allow antibody penetration into cells, and then the plate was washed three times with 50 μL of PBS. To block nonspecific binding of antibodies to the plate, 50 μL of PBS containing 2% BSA (sigma, #A7906-500G) and 0.01% Tween-20 (Sigma, #P1379-500 mL) (hereinafter referred to as PBS-T) was added, and reacted at room temperature for 2 hours.
To detect pERK, the primary antibody (cell signaling, #9101) was diluted 1:500 in PBS-T containing 2% BSA, 50 μL was added, and the plate was stored in a refrigerator at 4° C. for 16 hours to react, followed by washing three times with 50 μL of PBS-T. To visualize the primary antibody, the secondary antibody, i.e., anti-rabbit-Alexa Fluor 488 (ThermoFisher, #A11008), was diluted 1:1000 in PBS-T containing 2% BSA, 50 μL was added, and after reaction at room temperature for 1 hour, the plate was washed three times with 50 μL of PBS-T. Next, to visualize the nuclei of cells, DAPI (Thermofisher, #62248, 1 mg/mL) was diluted 1:1000 in PBS-T, 50 μL each was added, reacted at room temperature for 10 minutes, and washed three times with 50 μL of PBS-T. 50 μL of PBS-T was added to each well, and the plate was read for fluorescence value using HCS equipment (MOLECULAR DEVICES/ImageXpress Micro).
Data analysis was performed by normalizing the pERK (Thr202/Tyr204) signal to the DAPI signal and calculating the percentage relative to the DMSO as a control. The IC50 value was determined by fitting a four-parameter dose-response curve using the GraphPad Prism software (version 8.4.3), and interpolating the concentration at which 50% inhibition occurred. The results of calculating the inhibitory efficacy of the compounds according to one embodiment of the present application against KRAS G12D mutation-induced pERK activity are shown in Table 3.

[4] = tested on: KRAS G12D mutant pancreatic cancer cell line AsPC-1; experiment: Cell viability assay using KRAS G12D mutant cells (AsPC-1, 3D culture, celltiter-glo 3D); type: cell-based; settings: Homo sapiens, ASPC1, 5th day after compound treatment
Protocol: Test Example 3: Cell Viability Assay Using KRAS G12D Mutant Cells
The KRAS G12D mutant pancreatic cancer cell line AsPC-1 was obtained from the Korean Cell Line Bank (KCLB) and maintained in 100-mm dishes or T75 (75 cm^2) flasks using RPM11640+10% fetal bovine serum (FBS)+1% Penicillin-Streptomycin medium. The cells were cultured at 37° C. with 5% CO2. The number of viable cells was counted using Countess (Invitrogen).
When AsPC-1 cells reached 85-100% confluence in the flask, the cells were harvested using 1× trypsin/EDTA solution, and seeded into a 96-well plate for 3D culture at 1000 cells/100 μL/well. The next day, the compounds were diluted ⅕ with DMSO from 10 μM or 50 μM to 0.0001 μM or 0.0006 μM and treated 1:1 (v/v) in the plate where the cells were seeded.
Cell culture was terminated on the 5th day after compound treatment, and cell viability at each concentration was measured using the celltiter-glo 3D cell viability assay kit.
Cell viability assays were normalized to 100% for the DMSO-treated group and expressed as a percentage of the number of viable cells when treated with the compound.
Cell viability %=(average RLU of group treated with test substance−average RLU of untreated group)/(average RLU of group treated with DMSO−average RLU of untreated group)×100
The data were modeled using GraphPad Prism 9 (GraphPad Software) by applying a nonlinear regression curve fit with a four-parameter sigmoidal dose-response curve to determine cell viability as a function of compound concentration. The 50% inhibitory concentration (IC50) corresponds to the concentration at which the curve intersects the midpoint of cell viability. The results of the inhibitory effect of the compounds according to one embodiment of the present application on the viability of KRAS G12D mutant cells are presented in Table 4.

SMILES | GDP-KRAS G12D (ΔTmD, ° C.) [1] [°C] | GppNHp-KRAS G12D (ΔTmD, ° C.) [2] [°C] | IC50 [3] [nM] | IC50 [4] [nM]
CCc1c(F)ccc2cc(O)cc(-c3cc4nc(OC[C@@]56CCCN5C[C@H](F)C6)nc(N5C[C@H]6CC[C@@H](C5)N6)c4n4ccnc34)c12 [Example 1, 4-(1-((1 R,5S)-3,8-diazabicyclo[3.2.1]octan-3-yl)-3-(((2R,7aS)-2-fluorotetrahydro-1H-pyrrolizin-7a(5H)-yl)methoxy)imidazo[1′,2′:1,6]pyrido[3,2-d]pyrimidin-6-yl)-5-ethyl-6-fluoronaphthalen-2-ol] | 10.05 | 4.27 | 322 | 364
CCc1c(F)ccc2cc(O)cc(-c3c(F)c4nc(OC[C@@]56CCCN5C[C@H](F)C6)nc(N5C[C@H]6CC[C@@H](C5)N6)c4c4cc(C)oc34)c12 [Example 45, 4-(1-((1R,5S)-3,8-diazabicyclo[3.2.1]octan-3-yl)-5-fluoro-3-(((2R,7aS)-2-fluorotetrahydro-1H-pyrrolizin-7a(5H)-yl)methoxy)-8-methylfuro[3,2-n]quinazolin-6-yl)-5-ethyl-6-fluoronaphthalen-2-ol] | – | – | 70 | 37
Cc1cc2c(o1)c(-c1cc(O)cc3ccc(F)c(F)c13)c(F)c1nc(OC[C@@]34CCCN3C[C@H](F)C4)nc(N3C[C@H]4CC[C@@H](C3)N4)c12 [Example 46, 4-(1-((1R,5S)-3,8-diazabicyclo[3.2.1]octan-3-yl)-5-fluoro-3-(((2R,7aS)-2-fluorotetrahydro-1H-pyrrolizin-7a(5H)-yl)methoxy)-8-methylfuro[3,2-n]quinazolin-6-yl)-5,6-difluoronaphthalen-2-ol] | – | – | 45 | 25
C#Cc1c(F)ccc2cc(O)cc(-c3c(F)c4nc(OC[C@@]56CCCN5C[C@H](F)C6)nc(NCC5(N(C)C)CCC5)c4c4cc(C)oc34)c12 [Example 48, 4-(1-(((1-(dimethylamino)cyclobutyl)methyl)amino)-5-fluoro-3-(((2R,7aS)-2-fluorotetrahydro-1H-pyrrolizin-7a(5H)-yl)methoxy)-8-methylfuro[3,2-n]quinazolin-6-yl)-5-ethynyl-6-fluoronaphthalen-2-ol] | – | – | 333 | 136
C#Cc1c(F)ccc2cc(N)cc(-c3cc4nc(OC[C@@]56CCCN5C[C@H](F)C6)nc(N5C[C@H]6CC[C@@H](C5)N6)c4c4cn(C)nc34)c12 [Example 71, 4-(9-((1R,5S)-3,8-diazabicyclo[3.2.1]octan-3-yl)-7-(((2R,7aS)-2-fluorotetrahydro-1H-pyrrolizin-7a(5H)-yl)methoxy)-2-methyl-2H-pyrazolo[4,3-f]quinazolin-4-yl)-5-ethynyl-6-fluoronaphthalen-2-amine] | 8.14 | 4.88 | 512 | –
CCc1c(F)ccc2cc(O)cc(-c3cc4nc(OC[C@@]56CCCN5C[C@H](F)C6)nc(N5C[C@H]6CC[C@@H](C5)N6)c4c4cn(C)nc34)c12 [Example 83, 4-(9-((1R,5S)-3,8-diazabicyclo[3.2.1]octan-3-yl)-7-(((2R,7aS)-2-fluorotetrahydro-1H-pyrrolizin-7a(5H)-yl)methoxy)-2-methyl-2H-pyrazolo[4,3-f]quinazolin-4-yl)-5-ethyl-6-fluoronaphthalen-2-ol] | 10.06 | 5.76 | 100 | –
CCc1c(F)ccc2cc(O)cc(-c3c(F)c4nc(OC[C@@]56CCCN5CC(=C(F)F)C6)nc(N5C[C@H]6CC[C@@H](C5)N6)c4c4cn(C)nc34)c12 [Example 97, 4-(9-((1R,5S)-3,8-diazabicyclo[3.2.1]octan-3-yl)-7-(((S)-2-(difluoromethylene)tetrahydro-1H-pyrrolizin-7a(5H)-yl)methoxy)-5-fluoro-2-methyl-2H-pyrazolo[4,3-f]quinazolin-4-yl)-5-ethyl-6-fluoronaphthalen-2-ol] | 14.20 | 8.42 | – | 7
C#Cc1c(F)ccc2cc(O)cc(-c3c(F)c4nc(OCC5(CN6CC[C@@H](F)C6)CCC5)nc(N5C[C@H]6CC[C@@H](C5)N6)c4c4cn(C)nc34)c12 [Example 98, 4-(9-((1R,5S)-3,8-diazabicyclo[3.2.1]octan-3-yl)-5-fluoro-7-((1-(((R)-3-fluoropyrrolidin-1-yl)methyl)cyclobutyl)methoxy)-2-methyl-2H-pyrazolo[4,3-f]quinazolin-4-yl)-5-ethynyl-6-fluoronaphthalen-2-ol] | 11.43 | 5.79 | – | 110
C#Cc1c(F)ccc2cc(N)cc(-c3c(F)c4nc(OC[C@@]56CCCN5CC(=C(F)F)C6)nc(N5C[C@H]6CC[C@@H](C5)N6)c4c4cn(C)nc34)c12 [Example 99, 4-(9-((1R,5S)-3,8-diazabicyclo[3.2.1]octan-3-yl)-7-(((S)-2-(difluoromethylene)tetrahydro-1H-pyrrolizin-7a(5H)-yl)methoxy)-5-fluoro-2-methyl-2H-pyrazolo[4,3-f]quinazolin-4-yl)-5-ethynyl-6-fluoronaphthalen-2-amine] | 11.13 | 7.27 | – | 27
C#Cc1c(F)ccc2cc(O)cc(-c3c(F)c4nc(OC[C@]56CC(=C)CN5C[C@@H](F)C6)nc(N5C[C@H]6CC[C@@H](C5)N6)c4c4cn(C)nc34)c12 [Example 100, 4-(9-((1 R,5S)-3,8-diazabicyclo[3.2.1]octan-3-yl)-5-fluoro-7-(((2S,7aR)-2-fluoro-6-methylenetetrahydro-1H-pyrrolizin-7a(5H)-yl)methoxy)-2-methyl-2H-pyrazolo[4,3-n]quinazolin-4-yl)-5-ethynyl-6-fluoronaphthalen-2-ol] | 14.50 | 8.92 | – | 29
